# Patent US12685777B2, “Compositions, systems, and methods for modulating a target gene” (The Board of Trustees of the Leland Stanford Junior …, priority 2022, dated 2026)
# Tests used:
# [1] = molecular target: T1, bromodomain 1 of BRD4 and BTB domain of BCL6 (Homo sapiens, UniProt O60885+P41182, C67R/C84N/C8Q); assay: TR-FRET assay of ternary complex formation; assay type: binding; conditions: 1 hr at room temperature, 520 nm/490 nm ratio
# T1 construct: contains amino acids 5-129 with three mutations, C8Q, C67R, C84N
# Procedure: Reaction was incubated for 1 hr at room temperature, and subsequently the fluorescence at 520 nm and 490 nm was measured. The 520 nm/490 nm ratio is plotted respective to DMSO control. The two lower curves are performed by addition of Neg1 and Neg2 instead of JWZ-7-7. […] The structure of JWZ-7-7 is provided in FIG. 2 and the structures of Neg1 and Neg2 are provided below:
# Each reaction contained 100 nM BRD4^BD1, 100 nM BCL6BTB-Avi-Biot, 20 nM Streptavidin-FITC (Thermo #SA1001), and 1:400 anti-6×His terbium antibody (PerkinElmer #61H12TLF) in 10 μL of buffer containing 20 mM HEPES, 150 mM NaCl, 0.1% BSA, 0.1% NP-40, and 1 mM TCEP in a 384-well plate. Protein was incubated with drug digitally dispensed (Tecan D300e) for 1 hour in the dark at room temperature before excitation at 337 nm and measurement of emission at 520 nm (FITC) and 490 nm (terbium) with a PHERAstar FS plate reader (BMG Labtech). The ratio of signal at 520 nm to 490 nm was calculated and normalized to DMSO-treated conditions, and plotted.
# DLBCL cells = assay: Killing of DLBCL cell lines (cell viability); assay type: cell-based
# Procedure: 30,000 cells were plated in 100 μL media per well of a 96 well plate and treated with drug for indicated times and doses. A resazurin-based indicator of cell health (PrestoBlue, ThermoFisher #P50200) was added for 1.5 hours after which the fluorescence ratio at 560/590 nm was recorded. The background fluorescence was subtracted and the signal was normalized to DMSO-treated cells. EC50 measurements on cell lines were done with 4 biological repeats by separate cell passages maintained by 3 independent investigators. Fit of dose-response curves to data and statistical analysis was performed using drc package in R using the four-parameter log-logistic function.
# It was noted that neither Bl3812 nor JQ1 produced complete loss of cell viability (FIG. 28, Panel A) leaving a resistant population of cells as has been previously reported.
# [2] = test system: BRD4, Pol II ser 2 phos, H3K27ac occupancy; assay: ChIP-seq of BRD4, Pol II ser 2 phos, H3K27ac in KARPAS422 cells; assay type: cell-based, human
# Procedure: Cells were washed in PBS and crosslinked for 12 minutes in CiA Fix Buffer (50 mM HEPES pH 8.0, 1 mM EDTA, 0.5 mM EGTA, 100 mM NaCl) with addition of formaldehyde to a final concentration of 1%. The crosslinking reaction was quenched by glycine added at 0.125 M final concentration. Crosslinked cells were centrifuged at 1,000×g for 5 minutes. Nuclei were prepared by 10 minute incubation of resuspended pellet in CiA NP-Rinse 1 buffer (50 mM HEPES pH 8.0, 140 mM NaCl, 1 mM EDTA, 10% glycerol, 0.5% IPEGAL CA-630, 0.25% Triton X100) followed by wash in CIA NP-Rinse 2 buffer (10 mM Tris pH 8.0, 1 mM EDTA, 0.5 mM EGTA, 200 mM NaCl). The pellet was resuspended in CiA Covaris Shearing Buffer (0.1% SDS, 1 mM EDTA pH 8.0, 10 mM Tris HCl pH 8.0) with 1000× protease inhibitors (Roche) and sonicated for 20 minutes with Covaris E220 sonicator (Peak Power 140, Duty Factor 5.0, Cycles/Burst 200). The distribution of fragments was confirmed with agarose gel. 300 μL of chromatin per ChIP was used with anti-BRD4 antibodies (Cell Signaling E2A7X). 50 μg of chromatin was used with anti-Pol II ser 2 phos (Abcam ab5095) and anti-Pol II ser 5 phos (ActiveMotif 3E8) antibodies. 25 μg of chromatin was used with anti-H3K27ac (Abcam ab4729). For each Pol II ser 2 phos, Pol II ser 5 phos, and H3K27ac ChIP, exactly 20 ng (for Pol II ser 2 phos and ser 5 phos) or 50 ng (for H3K27ac) Drosophila chromatin (ActiveMotif #53083) was spiked-in with 2 μL spike-in-chromatin-specific antibody (ActiveMotif #61686). After overnight incubation at 4° C. in IP buffer (50 mM HEPES pH 7.5, 300 mM NaCl, 1 mM EDTA, 1% Triton X100, 0.1% sodium deoxycholic acid salt (DOC), 0.1% SDS), Ips were washed twice with IP buffer, once with DOC buffer (10 mM Tris pH 8, 0.25 M LiCl, 0.5% IPEGAL CA-630, 0.5% sodium deoxycholic acid salt (DOC), 1 mM EDTA), and, once with 10 mM Tris/1 mM EDTA buffer (TE) pH 8. Ips and inputs were reverse-crosslinked in TE/0.5% SDS/0.5 μg/μL proteinase K for 55° C./3 hours then 65° C./18 hours, then DNA was purified using a PCR cleanup spin column (Takara #74609). The sequencing library preparation was performed using NEBNext Ultra II DNA kit (#E7645S). Libraries were sequenced on an Illumina NovaSeq (Novogene).
# The data quality was checked using fastqc. The raw reads were trimmed from adapters with trim_galore (parameters: —paired—255 Ilumine) and raw reads were aligned to hg38 human genome assembly and the dm6 fly genome assembly using bowtie2 (parameters: —local—maxins 1000). Low quality reads, duplicated reads and reads with multiple alignments were removed using samtools (Li et al., Bioinformatics (2009) 25: 2078-2079) and Picard (broadinstitute.github.io/picard/). Macs2 was used to map position of peaks with FDR cutoff of 0.05. Bedtools (Quinlan et al, Bioinformatics (2010) 26: 841-842) was used to find consensus set of peaks by merging peaks across multiple conditions (bedtools merge), count number of reads in peaks (bedtools intersect—c) and generate genome coverage (bedtools genomecov-bga). deepTools (Ramirez et al., Nucleic Acids Research (2016) 44: W160-W165). […] This procedure was carried out on a per-antigen basis (i.e., the H3K27ac ChIPs were treated separately from the Pol II ser 2 phos ChIPs which were separate from the Poll II ser 5 phos ChIPs). The average percentage of reads in each sample that mapped to the fly genome was 1.8±1.4% (mean±s.d.). All browser tracks and metaprofiles shown were calculated with spike-in normalized and input-subtracted data. The peak differential analysis and PCA analysis was performed using DESeq2^82.
# BRD4 and other BET proteins have previously been implicated largely in transcriptional elongation, particularly in mediating P-TEFb/CDK9 activation of RNA Polymerase II ([…]) elongation activity by phosphorylation of serine 2 of the C-terminal domain (CTD) of Pol II ([…] ser 2 phos). […]
# [3] = after 2 hours, of 51,678 consensus peaks
Structure (SMILES),Ternary complex formation (TR-FRET) [1],"Cell killing after short exposure and washout (DLBCL cells; 10 nM, 4 hours exposure followed by washout)",Time to Pol II serine 2 phosphorylation (transcriptional elongation) at BCL6 targets ([2]; 10 nM),Loss of BRD4 from enhancers and super enhancers ([2]; ChIP-seq),"Fraction of total BRD4 recruited / relocalized to BCL6 target genes ([2]; Karpas 422, one hour)","EC50 (DLBCL cells; DLBCL lines including chemotherapy-resistant, TP53-mutant lines, 72 hrs)","Increase of BRD4 at promoters of BCL6 target genes / genomic BCL6 binding sites ([2]; ChIP-seq, one hour)","H3K27ac peaks decreased [2, 3]","H3K27ac peaks increased [2, 3]"
"CNC(=O)COc1cc2cc(Nc3nc(N4CCC(C(=O)NCCCCCCCNC(=O)C[C@@H]5N=C(c6ccc(Cl)cc6)c6c(sc(C)c6C)-n6c(C)nnc65)CC4)ncc3Cl)cc(OC)c2n(C)c1=O [JWZ-7-7, (S)-1-(5-chloro-4-((8-methoxy-1-methyl-3-(2-(methylamino)-2-oxoethoxy)-2-oxo-1,2-dihydroquinolin-6-yl)amino)pyrimidin-2-yl)-N-(7-(2-(4-(4-chlorophenyl)-2,3,9-trimethyl-6H-thieno[3,2-f][1,2,4]triazolo[4,3-a][1,4]diazepin-6-yl)acetamido)heptyl)piperidine-4-carboxamide]",showed ternary complex formation,robust killing,≤ 15 min,about 10%,about 10%,–,–,–,–
CNC(=O)COc1cc2cc(Nc3nc(N4CCC(C(=O)NCCCCCCCNC(=O)C[C@@H]5N=C(c6ccc(Cl)cc6)c6c(sc(C)c6C)-n6c(C)nnc65)CC4)ncc3Cl)cc(OC)c2n(C)c1=O [TCIP1],detected,–,–,–,–,1.3 nM,50%,70 peaks,126 peaks
